Assay results from ChEMBL document CHEMBL1201862, “PubChem BioAssay data set” (2004).
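Dose response: 5 concentrations. Exposure: 48 h. Format: 96-well plates. Endpoint: linear interpolation; highest concentration if not reached. Here, GI50 denotes the concentration required for 50% inhibition of growth.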 Calls of active or inactive are those of the source. No stated cut-off is given here; in the data, active = GI50 up to about 1.1 µM and inactive = higher.

Columns and labels:
Test in all cases: growth of human tumour cells (NCI), 48 h
A498 = test system: A498
HCT-15 = test system: HCT-15
HL-60 = test system: HL-60
HT-29 = test system: HT-29
Hs-578T = test system: Hs-578T
K562 = test system: K562
MDA-MB-435 = test system: MDA-MB-435
MOLT-4 = test system: MOLT-4
Malme-3M = test system: Malme-3M
PC-3 = test system: PC-3
RPMI-8226 = test system: RPMI-8226
RXF 393 = test system: RXF 393
SF-268 = test system: SF-268
SF-295 = test system: SF-295
SF-539 = test system: SF-539
SR = test system: SR
SW-620 = test system: SW-620
T47D = test system: T47D
UACC-62 = test system: UACC-62

| Compound | GI50 (A498) | GI50 (HCT-15) [µM] | GI50 (HL-60) | GI50 (HT-29) | GI50 (Hs-578T) | GI50 (K562) | GI50 (MDA-MB-435) | GI50 (MOLT-4) | GI50 (Malme-3M) | GI50 (PC-3) | GI50 (RPMI-8226) | GI50 (RXF 393) | GI50 (SF-268) | GI50 (SF-295) | GI50 (SF-539) | GI50 (SR) | GI50 (SW-620) | GI50 (T47D) | GI50 (UACC-62) |
| --- | --- | --- | --- | --- | --- | --- | --- | --- | --- | --- | --- | --- | --- | --- | --- | --- | --- | --- | --- |
| COc1cc2c(cc1O)C(Cc1ccc(OCc3ccccc3)c(OCc3ccccc3)c1)N(C(=O)NCCc1ccccc1)CC2 (stereo not given) | 78.5 µM (inactive) | > 100 | 37.3 µM (inactive) | > 100 µM (inactive) | > 100 µM (inactive) | 74.3 µM (inactive) | > 100 µM (inactive) | > 100 µM (inactive) | > 100 µM (inactive) | 54.7 µM (inactive) | 10.4 µM (inactive) | > 100 µM (inactive) | > 100 µM (inactive) | > 100 µM (inactive) | > 100 µM (inactive) | 37.3 µM (inactive) | > 100 µM (inactive) | 16.4 µM (inactive) | > 100 µM (inactive) |
| O=[N+]([O-])C(C=C(n1nnc2ccccc21)n1nnc2ccccc21)=C(n1nnc2ccccc21)n1nnc2ccccc21 | > 100 µM (inactive) | > 100 | 41 µM (inactive) | > 100 µM (inactive) | 58.5 µM (inactive) | 42.3 µM (inactive) | > 100 µM (inactive) | 26.2 µM (inactive) | > 100 µM (inactive) | > 100 µM (inactive) | 44.6 µM (inactive) | > 100 µM (inactive) | > 100 µM (inactive) | > 100 µM (inactive) | > 100 µM (inactive) | 23 µM (inactive) | > 100 µM (inactive) | > 100 µM (inactive) | > 100 µM (inactive) |
| COc1ccc(O)c(/C(C)=N/NC(=S)N(C)C)c1 | > 100 µM (inactive) | 5.12 | 56 µM (inactive) | 0.0306 µM (active) | > 100 µM (inactive) | 60.1 µM (inactive) | 57.7 µM (inactive) | 36.5 µM (inactive) | 71 µM (inactive) | > 36.4 µM (inactive) | 47.4 µM (inactive) | > 100 µM (inactive) | 20.9 µM (inactive) | 31.3 µM (inactive) | 64 µM (inactive) | 25.8 µM (inactive) | 28.6 µM (inactive) | 40.9 µM (inactive) | 26.1 µM (inactive) |
| [N-]=[N+]=NC1(c2ccccc2)C(=O)Nc2ccccc2C1=O (stereo not given) | 0.706 µM (active) | 33.8 | 34.5 µM (inactive) | 31.3 µM (inactive) | 22.3 µM (inactive) | 29.4 µM (inactive) | 11.3 µM (inactive) | 21.7 µM (inactive) | 40.7 µM (inactive) | 25.1 µM (inactive) | 22.7 µM (inactive) | 25.5 µM (inactive) | 38.2 µM (inactive) | 56.4 µM (inactive) | 36.8 µM (inactive) | 41.2 µM (inactive) | 26.4 µM (inactive) | 95.5 µM (inactive) | 19.1 µM (inactive) |
| CCn1c(SCC(=O)N/N=C2\SCC(=O)N2c2ccc(C)cc2)nc2ccccc2c1=O | 20.8 µM (inactive) | 32.1 | 92.3 µM (inactive) | 16.5 µM (inactive) | 16.4 µM (inactive) | 29.2 µM (inactive) | 21.2 µM (inactive) | 25.9 µM (inactive) | 21.9 µM (inactive) | 21.3 µM (inactive) | 18.5 µM (inactive) | 17.4 µM (inactive) | 20.3 µM (inactive) | 18.6 µM (inactive) | 17.6 µM (inactive) | 17.4 µM (inactive) | 33.7 µM (inactive) | 25.1 µM (inactive) | 15.3 µM (inactive) |
